According to patent US9556165B2 (priority 2012, dated 2017):
Converted amounts (≈) assume the structure as drawn. Like-named read-outs stand apart in the source and are kept apart here.

What was measured:
Format in all cases: cell-based
[1] = tested on: Bacteria; assay: MIC determination in combination with β-lactamase inhibitors (constant 4 μg/mL)
[2] = tested on: A. baumannii ATCC15308; assay: MIC determination, broth microdilution (CLSI); conditions: Acinetobacter baumannii, ATCC15308, strain 9
[3] = tested on: P. aeruginosa 2297-con (AmpC derepressed); assay: MIC determination, broth microdilution (CLSI); conditions: Pseudomonas aeruginosa, read-out: strain 8 MIC, strain 8
[4] = tested on: C. freundii K21/3034; assay: MIC determination, broth microdilution (CLSI); conditions: Citrobacter freundii, K21/3034, strain 4
[5] = tested on: E. coli ATCC25922; assay: MIC determination, broth microdilution (CLSI); conditions: Escherichia coli, ATCC25922, strain 1
[6] = tested on: M. morganii 126/3048; assay: MIC determination, broth microdilution (CLSI); conditions: Morganella morganii, 126/3048, strain 5
[7] = tested on: E. coli J62-TEM-3; assay: MIC determination, broth microdilution (CLSI); conditions: Escherichia coli, J62TEM3, read-out: MIC strain 18 (E. coli J62-TEM-3), strain 18; broth microdilution
[8] = tested on: E. cloacae 34654; assay: MIC determination, broth microdilution (CLSI); conditions: Enterobacter cloacae, 34654, strain 3
[9] = tested on: S. aureus 133; assay: MIC determination, broth microdilution (CLSI)
[10] = tested on: P. aeruginosa 2297 (AmpC wt); assay: MIC determination, broth microdilution (CLSI); conditions: Pseudomonas aeruginosa, strain 7
[11] = tested on: K. pneumoniae 60; assay: MIC determination, broth microdilution (CLSI); conditions: Klebsiella pneumoniae, 60, strain 2
[12] = tested on: P. aeruginosa PAO1; assay: MIC determination, broth microdilution (CLSI); conditions: Pseudomonas aeruginosa, PAO1, strain 6
[13] = tested on: B. fragilis 6688; assay: MIC determination, broth microdilution (CLSI); conditions: Bacteroides fragilis, 6688, strain 15; broth microdilution; read-out: MIC strain 15 (B. fragilis 6688)
[14] = tested on: E. coli J62; assay: MIC determination, broth microdilution (CLSI); conditions: Escherichia coli, J62, strain 17; broth microdilution; read-out: MIC strain 17 (E. coli J62)
[15] = tested on: S. pneumoniae 113; assay: MIC determination, broth microdilution (CLSI); conditions: Streptococcus pneumoniae, 113, strain 13; broth microdilution; read-out: MIC strain 13 (S. pneumoniae 113)
[16] = tested on: H. influenzae ATCC 49247; assay: MIC determination, broth microdilution (CLSI); conditions: Haemophilus influenzae, ATCC49247, strain 12; broth microdilution; read-out: MIC strain 12 (H. influenzae ATCC 49247)
[17] = Staphylococcus aureus, 133, strain 11, read-out: strain 11 MIC
[18] = Staphylococcus aureus, 133, strain 14, broth microdilution, read-out: MIC strain 14 (S. aureus 133)

Row | SMILES | MIC strain 19 (E. coli J62-TEM-3 + 4 μg/mL clavulanic acid) [1] | MIC strain 20 (E. coli J62-TEM-3 + 4 μg/mL sulbactam) [1] | MIC strain 21 (E. coli J62-TEM-3 + 4 μg/mL tazobactam) [1] | MIC [2] | MIC [3] | MIC [4] | MIC [5] | MIC [6] | MIC [7] | MIC [8] | MIC [9, 17] | MIC [9, 18] | MIC [10] | MIC [11] | MIC [12] | MIC [13] | MIC [14] | MIC [15] | MIC [16]
1 | CNC(=N)c1ccc(OCCO/N=C(\C(=O)N[C@@H]2C(=O)N(S(=O)(=O)O)[C@H]2C)c2csc(N)n2)cc1 [Example 68, (2S,3S)-3-{[(2Z)-2-(2-Amino-1,3-thiazol-4-yl)-2-({2-[4-(N-methylcarbamimidoyl)-phenoxy]ethoxy}imino)acetyl]amino}-2-methyl-4-oxoazetidine-1-sulfonic acid] | 0.125 µg/mL | 0.25 µg/mL | 0.25 µg/mL | 2 µg/mL (≈ 3.81 µM) | 32 µg/mL (≈ 60.9 µM) | 0.125 µg/mL (≈ 0.238 µM) | 0.125 µg/mL (≈ 0.238 µM) | 0.125 µg/mL (≈ 0.238 µM) | 16 µg/mL (≈ 30.4 µM) | 0.125 µg/mL (≈ 0.238 µM) | ≤ 0.063 µg/mL | 2 µg/mL (≈ 3.81 µM) | 8 µg/mL (≈ 15.2 µM) | 0.25 µg/mL (≈ 0.476 µM) | 2 µg/mL (≈ 3.81 µM) | 8 µg/mL (≈ 15.2 µM) | 0.25 µg/mL (≈ 0.476 µM) | 0.5 µg/mL (≈ 0.951 µM) | 0.125 µg/mL (≈ 0.238 µM)
2 | C[C@H]1[C@H](NC(=O)/C(=N\OCCOc2ccc(C(=N)N)cc2)c2nsc(N)n2)C(=O)N1S(=O)(=O)O [Example 52] | 2 µg/mL | 2 µg/mL | 2 µg/mL | 1 µg/mL (≈ 1.95 µM) | 16 µg/mL (≈ 31.2 µM) | 0.25 µg/mL (≈ 0.488 µM) | 1 µg/mL (≈ 1.95 µM) | 1 µg/mL (≈ 1.95 µM) | – | 1 µg/mL (≈ 1.95 µM) | 2 µg/mL (≈ 3.9 µM) | 8 µg/mL (≈ 15.6 µM) | 4 µg/mL (≈ 7.8 µM) | 0.5 µg/mL (≈ 0.976 µM) | 4 µg/mL (≈ 7.8 µM) | 32 µg/mL (≈ 62.4 µM) | 2 µg/mL (≈ 3.9 µM) | 16 µg/mL (≈ 31.2 µM) | 8 µg/mL (≈ 15.6 µM)
3 | C[C@H]1[C@H](NC(=O)/C(=N\OCCOc2ccc(C(=N)N)cc2COC=O)c2csc(N)n2)C(=O)N1S(=O)(=O)O [Example 60, (2S,3S)-3-({(2Z)-2-(2-Amino-1,3-thiazol-4-yl)-2-[(2-{4-carbamimidoyl-2-[(formyloxy)-methyl]phenoxy}ethoxy)imino]acetyl}amino)-2-methyl-4-oxoazetidine-1-sulfonic acid] | 2 µg/mL | 2 µg/mL | 2 µg/mL | 4 µg/mL (≈ 7.02 µM) | 32 µg/mL (≈ 56.2 µM) | 1 µg/mL (≈ 1.76 µM) | 1 µg/mL (≈ 1.76 µM) | 0.5 µg/mL (≈ 0.878 µM) | 32 µg/mL (≈ 56.2 µM) | 2 µg/mL (≈ 3.51 µM) | 0.25 µg/mL (≈ 0.439 µM) | 16 µg/mL (≈ 28.1 µM) | 16 µg/mL (≈ 28.1 µM) | 1 µg/mL (≈ 1.76 µM) | 16 µg/mL (≈ 28.1 µM) | 16 µg/mL (≈ 28.1 µM) | 2 µg/mL (≈ 3.51 µM) | 1 µg/mL (≈ 1.76 µM) | 1 µg/mL (≈ 1.76 µM)
4 | C[C@H]1[C@H](NC(=O)/C(=N\OCCOc2ccc(C(=N)N)cc2CO)c2csc(N)n2)C(=O)N1S(=O)(=O)O [Example 59, (2S,3S)-3-{[(2Z)-2-(2-Amino-1,3-thiazol-4-yl)-2-({2-[4-carbamimidoyl-2-(hydroxymethyl)phenoxy]ethoxy}imino)acetyl]amino}-2-methyl-4-oxoazetidine-1-sulfonic acid] | 2 µg/mL | 2 µg/mL | 2 µg/mL | 1 µg/mL (≈ 1.85 µM) | 32 µg/mL (≈ 59.1 µM) | 0.5 µg/mL (≈ 0.923 µM) | 1 µg/mL (≈ 1.85 µM) | 1 µg/mL (≈ 1.85 µM) | 32 µg/mL (≈ 59.1 µM) | 1 µg/mL (≈ 1.85 µM) | 0.25 µg/mL (≈ 0.462 µM) | 32 µg/mL (≈ 59.1 µM) | 16 µg/mL (≈ 29.5 µM) | 1 µg/mL (≈ 1.85 µM) | 16 µg/mL (≈ 29.5 µM) | 16 µg/mL (≈ 29.5 µM) | 2 µg/mL (≈ 3.69 µM) | 0.5 µg/mL (≈ 0.923 µM) | 1 µg/mL (≈ 1.85 µM)
5 | C[C@H]1[C@H](NC(=O)/C(=N\OCCOc2ccc(CC(=N)N)cc2)c2csc(N)n2)C(=O)N1S(=O)(=O)O [Example 62, (2S,3S)-3-{[(2Z)-2-({2-[4-(2-Amino-2-iminoethyl)phenoxy]ethoxy}imino)-2-(2-amino-1,3-thiazol-4-yl)acetyl]amino}-2-methyl-4-oxoazetidine-1-sulfonic acid] | 1 µg/mL | 1 µg/mL | 1 µg/mL | 2 µg/mL (≈ 3.81 µM) | 32 µg/mL (≈ 60.9 µM) | 0.5 µg/mL (≈ 0.951 µM) | 1 µg/mL (≈ 1.9 µM) | 0.125 µg/mL (≈ 0.238 µM) | 16 µg/mL (≈ 30.4 µM) | 1 µg/mL (≈ 1.9 µM) | 0.125 µg/mL (≈ 0.238 µM) | 8 µg/mL (≈ 15.2 µM) | 8 µg/mL (≈ 15.2 µM) | 0.5 µg/mL (≈ 0.951 µM) | 4 µg/mL (≈ 7.61 µM) | 16 µg/mL (≈ 30.4 µM) | 1 µg/mL (≈ 1.9 µM) | 1 µg/mL (≈ 1.9 µM) | 0.25 µg/mL (≈ 0.476 µM)
6 | C[C@H]1[C@H](NC(=O)/C(=N\OCCOc2ccc(NC(=N)N)cc2)c2csc(N)n2)C(=O)N1S(=O)(=O)O [Example 50, (2S,3S)-3-{[(2Z)-2-(2-Amino-1,3-thiazol-4-yl)-2-{[2-(4-carbamimidamidophenoxy)ethoxy]imino}acetyl]amino}-2-methyl-4-oxoazetidine-1-sulfonic acid] | 1 µg/mL | 1 µg/mL | 1 µg/mL | 2 µg/mL (≈ 3.8 µM) | 32 µg/mL (≈ 60.8 µM) | 1 µg/mL (≈ 1.9 µM) | 0.5 µg/mL (≈ 0.95 µM) | 0.5 µg/mL (≈ 0.95 µM) | – | 1 µg/mL (≈ 1.9 µM) | 0.125 µg/mL (≈ 0.237 µM) | 8 µg/mL (≈ 15.2 µM) | 16 µg/mL (≈ 30.4 µM) | 0.5 µg/mL (≈ 0.95 µM) | 8 µg/mL (≈ 15.2 µM) | 16 µg/mL (≈ 30.4 µM) | 1 µg/mL (≈ 1.9 µM) | 1 µg/mL (≈ 1.9 µM) | 0.25 µg/mL (≈ 0.475 µM)
7 | C[C@H]1[C@H](NC(=O)/C(=N\OCCCOc2ccc(NC(=N)N)cc2)c2csc(N)n2)C(=O)N1S(=O)(=O)O [Example 51, (2S,3S)-3-{[(2Z)-2-(2-Amino-1,3-thiazol-4-yl)-2-{[3-(4-carbamimidamidophenoxy)propoxy]imino}acetyl]amino}-2-methyl-4-oxoazetidine-1-sulfonic acid] | 4 µg/mL | 4 µg/mL | 4 µg/mL | 4 µg/mL (≈ 7.4 µM) | 32 µg/mL (≈ 59.2 µM) | 2 µg/mL (≈ 3.7 µM) | 2 µg/mL (≈ 3.7 µM) | 2 µg/mL (≈ 3.7 µM) | – | 2 µg/mL (≈ 3.7 µM) | 0.5 µg/mL (≈ 0.925 µM) | 8 µg/mL (≈ 14.8 µM) | 16 µg/mL (≈ 29.6 µM) | 4 µg/mL (≈ 7.4 µM) | 16 µg/mL (≈ 29.6 µM) | 16 µg/mL (≈ 29.6 µM) | 4 µg/mL (≈ 7.4 µM) | 1 µg/mL (≈ 1.85 µM) | 0.5 µg/mL (≈ 0.925 µM)
8 | C[C@@H]1[C@H](NC(=O)/C(=N\OCCCOc2ccc(C(=N)N)cc2)c2csc(N)n2)C(=O)N1S(=O)(=O)O [Example 48, (2R,3S)-3-{[(2Z)-2-(2-Amino-1,3-thiazol-4-yl)-2-{[3-(4-carbamimidoylphenoxy)propoxy]imino}acetyl]amino}-2-methyl-4-oxoazetidine-1-sulfonic acid] | 2 µg/mL | 2 µg/mL | 2 µg/mL | 8 µg/mL (≈ 15.2 µM) | 32 µg/mL (≈ 60.9 µM) | 2 µg/mL (≈ 3.81 µM) | 2 µg/mL (≈ 3.81 µM) | 1 µg/mL (≈ 1.9 µM) | – | 4 µg/mL (≈ 7.61 µM) | 0.5 µg/mL (≈ 0.951 µM) | 4 µg/mL (≈ 7.61 µM) | 16 µg/mL (≈ 30.4 µM) | 4 µg/mL (≈ 7.61 µM) | 8 µg/mL (≈ 15.2 µM) | 16 µg/mL (≈ 30.4 µM) | 2 µg/mL (≈ 3.81 µM) | 1 µg/mL (≈ 1.9 µM) | 0.5 µg/mL (≈ 0.951 µM)
9 | C[C@H]1[C@H](NC(=O)/C(=N\OCCOc2ccc(C(=N)N)cc2Br)c2csc(N)n2)C(=O)N1S(=O)(=O)O [Example 49, (2S,3S)-3-{[(2Z)-2-(2-Amino-1,3-thiazol-4-yl)-2-{[2-(2-bromo-4-carbamimidoyl-phenoxy)ethoxy]imino}acetyl]amino}-2-methyl-4-oxoazetidine-1-sulfonic acid] | 2 µg/mL | 2 µg/mL | 2 µg/mL | 4 µg/mL (≈ 6.77 µM) | 32 µg/mL (≈ 54.2 µM) | 1 µg/mL (≈ 1.69 µM) | 1 µg/mL (≈ 1.69 µM) | 2 µg/mL (≈ 3.39 µM) | – | 2 µg/mL (≈ 3.39 µM) | 0.125 µg/mL (≈ 0.212 µM) | 16 µg/mL (≈ 27.1 µM) | 16 µg/mL (≈ 27.1 µM) | 2 µg/mL (≈ 3.39 µM) | 8 µg/mL (≈ 13.5 µM) | 16 µg/mL (≈ 27.1 µM) | 2 µg/mL (≈ 3.39 µM) | 0.5 µg/mL (≈ 0.847 µM) | 0.5 µg/mL (≈ 0.847 µM)
